Data set [1] relates to Mycobacterium tuberculosis (H37Rv). The data set can be described thus: Whole-blood bactericidal activity (WBA) assay, ex vivo, blood of dosed healthy volunteers. The data set is classed as cell-based. The settings on record: for WBAcum(0–8) / WBAmax: mean (SD); for bactericidal activity in the WBA assay (in words): drug alone, single oral dose, over 8 hours post-dose.
Data set [2] is described as follows: Plasma pharmacokinetics in healthy volunteers (LC-MS/MS, non-compartmental analysis). The settings on record: for Cmax / Tmax / half-life / AUC(0-t): human, plasma, po; for Tmax: median (min, max); for half-life: mean (SD); for AUC(0-t): AUC(0–8).
Another data set can be described thus: clinical. The settings on record: human, in vivo, po, 10 mg/kg.
[3] abbreviates: Celecoxib alone 400 mg single oral dose, PZA group, n = 9.
The mark [4] stands for this setting: Celecoxib alone 400 mg single oral dose, RIF group, n = 9.
[5] abbreviates: celecoxib levels in plasma, PZA + C, celecoxib 400 mg with pyrazinamide 25 mg/kg oral, geometric mean (min, max).
Where [6] appears, read: celecoxib levels in plasma, RIF + C, celecoxib 400 mg with rifampicin 10 mg/kg oral, geometric mean (min, max).
The mark [7] stands for this setting: TB drug + Celecoxib: pyrazinamide 25 mg/kg with celecoxib 400 mg oral, PZA group, n = 9.
[8] abbreviates: TB drug alone: pyrazinamide 25 mg/kg single oral dose, PZA group, n = 9.
Setting [9] is: TB drug alone: pyrazinamide 25 mg/kg single oral dose, PZA group, n = 9, listed as PZA.
[10] abbreviates: 25 mg/kg, pyrazinamide levels in plasma, PZA alone, 25 mg/kg single oral dose, geometric mean (min, max).
Setting [11] is: pyrazinamide levels in plasma, PZA + C, pyrazinamide 25 mg/kg with celecoxib 400 mg oral, geometric mean (min, max).
Where [12] appears, read: TB drug + Celecoxib: rifampicin 10 mg/kg with celecoxib 400 mg oral, RIF group, n = 7.
Where [13] appears, read: TB drug alone: rifampicin 10 mg/kg single oral dose, RIF group, n = 9.
Where [14] appears, read: TB drug alone: rifampicin 10 mg/kg single oral dose, RIF group, n = 9, listed as RIF.

“And” between values parts separate entries of the source, which are not always exact repeats. Equal values may be shown once. “Also recorded” adds a separate entry of the source.

3 compounds from PMC6131161, “Adjunctive use of celecoxib with anti-tuberculosis drugs: evaluation in a whole-blood bactericidal activity model” (Scientific Reports, 2018) can be followed below.

As to `Cc1ccc(-c2cc(C(F)(F)F)nn2-c2ccc(S(N)(=O)=O)cc2)cc1` [Celecoxib, celecoxib], the “WBAcum(0–8)” value was 0.02 (0.01) ΔlogCFU in data set [1] (setting [3]); 0.03 ± 0.01 ΔlogCFU and 0.03 (0.01) ΔlogCFU in data set [1] (Celecoxib alone 400 mg single oral dose, RIF + PZA groups combined, n = 18, cumulative over 8 h post-dose); 0.03 (0.01) ΔlogCFU in data set [1] (setting [4]). For the same compound, the WBAmax in data set [1] (setting [3]) was 0.12 (0.10) ΔlogCFU; in data set [1] (Celecoxib alone 400 mg single oral dose, RIF + PZA groups combined, n = 18, up to 8 h post-dose, negative = killing), 0.14 (0.10) ΔlogCFU; in data set [1] (setting [4]), 0.17 (0.09) ΔlogCFU. For the same compound, in data set [1], the “bactericidal activity in the WBA assay (in words)” value (“bactericidal activity” for short) is “no bactericidal activity; also recorded: no activity alone”. The “effect of celecoxib on rifampicin or pyrazinamide drug levels (in words)” value in data set [2] (celecoxib 400 mg co-administered with rifampicin 10 mg/kg or pyrazinamide 25 mg/kg) was “no significant effect”. Further, the “Cmax and AUC(0–8hrs) of celecoxib when co-administered with the TB drugs (in words)” value in data set [2] (celecoxib 400 mg with rifampicin or pyrazinamide versus alone) is reported as “non-significant trend towards lower”. Further, in data set [2] (celecoxib levels in plasma, C alone, celecoxib 400 mg single oral dose, geometric mean (min, max)), the “AUC(0–8)” value was 5.97 (2.91, 10.25) h*mg/L. Moreover, the Cmax stood at 1140 ng/mL in data set [2] (400 mg, celecoxib levels in plasma, C alone, celecoxib 400 mg single oral dose, geometric mean (min, max)); 760 ng/mL in data set [2] (setting [5]); 890 ng/mL in data set [2] (setting [6]). The Tmax in data set [2] (400 mg, celecoxib levels in plasma, C alone, celecoxib 400 mg single oral dose) came to 2 h; in data set [2] (celecoxib levels in plasma, PZA + C, celecoxib 400 mg with pyrazinamide 25 mg/kg oral) it was 3 h; in data set [2] (celecoxib levels in plasma, RIF + C, celecoxib 400 mg with rifampicin 10 mg/kg oral), 2 h. The half-life is 4.48 h in data set [2] (400 mg, t1/2, celecoxib levels in plasma, C alone, celecoxib 400 mg single oral dose); 7.28 h in data set [2] (t1/2, celecoxib levels in plasma, PZA + C, celecoxib 400 mg with pyrazinamide 25 mg/kg oral, includes 24 hour data where available); 6.65 h in data set [2] (t1/2, celecoxib levels in plasma, RIF + C, celecoxib 400 mg with rifampicin 10 mg/kg oral, includes 24 hour data where available). For the same compound, the AUC(0-t) was found to be 4230 ng·h/mL in data set [2] (setting [5]) and 4530 ng·h/mL in data set [2] (setting [6]).

For `NC(=O)c1cnccn1` [Pyrazinamide, pyrazinamide], the “WBAcum(0–8), mean difference for TB drug with and without celecoxib (95% CI)” value in data set [1] (PZA group, paired data n = 9) was −0.01 (−0.03, 0.00) ΔlogCFU. In data set [1] (PZA group, paired data n = 9), the “WBAmax, mean difference for TB drug with and without celecoxib (95% CI)” value was −0.09 (−0.22, 0.04) ΔlogCFU. Also, the entries for the “WBAcum(0–8)” value in data set [1] (setting [7]), in data set [1] (setting [8]) and in data set [1] (setting [9]) were 0.00 (0.01) ΔlogCFU, 0.01 ± 0.03 ΔlogCFU and 0.01 (0.03) ΔlogCFU, respectively. For the same compound, the results for the WBAmax in data set [1] (setting [7]), in data set [1] (setting [8]) and in data set [1] (setting [9]) were −0.12 (0.10) ΔlogCFU, −0.03 ± 0.23 ΔlogCFU and −0.03 (0.23) ΔlogCFU, respectively. For the same compound, the “bactericidal activity” value in data set [1] is on record as “no bactericidal activity; also recorded: appeared to be bacteriostatic”. Moreover, the figures for the AUC(0-t) in data set [2] (setting [10]) and in data set [2] (setting [11]) were 207000 ng·h/mL and 212000 ng·h/mL, respectively. The Cmax in data set [2] (setting [10]) is 35500 ng/mL; in data set [2] (setting [11]), 35100 ng/mL. Besides, the Tmax in data set [2] (25 mg/kg, pyrazinamide levels in plasma, PZA alone, 25 mg/kg single oral dose) was 1 h; in data set [2] (pyrazinamide levels in plasma, PZA + C, pyrazinamide 25 mg/kg with celecoxib 400 mg oral) it was 1 h. The half-life in data set [2] (25 mg/kg, t1/2, pyrazinamide levels in plasma, PZA alone, 25 mg/kg single oral dose) is 11.4 h; in data set [2] (t1/2, pyrazinamide levels in plasma, PZA + C, pyrazinamide 25 mg/kg with celecoxib 400 mg oral, includes 24 hour data where available), 11.2 h.

On to `CO[C@H]1/C=C/O[C@@]2(C)Oc3c(C)c(O)c4c(O)c(c(/C=N/N5CCN(C)CC5)c(O)c4c3C2=O)NC(=O)/C(C)=C\C=C\[C@H](C)[C@H](O)[C@@H](C)[C@@H](O)[C@@H](C)[C@H](OC(C)=O)[C@@H]1C` [Rifampicin, rifampicin], for which, in data set [1] (RIF group, paired data n = 7), the “WBAcum(0–8), mean difference for TB drug with and without celecoxib (95% CI)” value is 0.00 (−0.02, 0.02) ΔlogCFU; the “WBAmax, mean difference for TB drug with and without celecoxib (95% CI)” value is on record as −0.03 (−0.25, 0.18) ΔlogCFU. In data set [1] (setting [12]), the “WBAcum(0–8)” value is on record as −0.22 (0.03) ΔlogCFU and the WBAmax is recorded as −2.51 (0.23) ΔlogCFU. Further, in data set [1] (setting [13]), the “WBAcum(0–8)” value is on record as −0.22 ± 0.02 ΔlogCFU and the WBAmax was −2.48 ± 0.24 ΔlogCFU. Also, in data set [1] (setting [14]), the “WBAcum(0–8)” value is −0.22 (0.02) ΔlogCFU and the WBAmax is given as −2.48 (0.24) ΔlogCFU. Besides, in data set [1], the “bactericidal activity” value is given as “strong bactericidal activity”. Besides, the AUC(0-t) in “clinical” (AUC(0–8)) was 92300 ng·h/mL. The same compound gave a Cmax in the data set “clinical” (Cmax) of 19300 ng/mL. Also, in “clinical” (Tmax), the Tmax was determined as 1 h.

Broadly, the Cmax is the highest concentration seen after dosing. The Tmax is the time at which the peak concentration occurs. One may read the half-life as how long it takes for the measured level to halve. For orientation: AUC(0-t) means the area under the concentration-time curve up to a stated or last time point.
